Reference: patent US20110020801A1, “Carboxylesterase-1 Polymorphisms and Methods of Use Therefor” (priority 2007, published 2011)
Like-named read-outs stand apart in the source and are kept apart here.

Tests used:
[1] = Pharmacokinetic study of orally administered racemic MPH in normal volunteers; type: in vivo, human; conditions: human, plasma
Method: Analysis of Pharmacokinetic, Hemodynamic, and Statistical Data. Standard pharmacokinetic analyses were applied to the MPH data using WinNonLin software (Pharsight, Mountainview, Calif.) and are described in a previous publication.^10 The AUC, Cmax, and t1/2 were analyzed using the Extreme Studentized Deviate (ESD) single-outlier procedure^12 to determine whether the parameter measurements for the slow metabolizer constituted true statistical outliers. For each parameter, the ESD procedure confirmed the measurement as an outlier at the p<0.01 level. Because this procedure is known to be conservative, the data from the aberrant metabolizer were reassessed using a similar procedure with respect to the normal participants only.

[2] = molecular target: T1, p.Gly143Glu CES1 (Homo sapiens, UniProt P23141, G143E); assay: MPH hydrolysis to ritalinic acid by S9 of cells expressing p.Gly143Glu CES1 (HPLC); type: biochemical; conditions: S9 500 μg/ml, even at very high S9 concentration (2 mg/ml); 37° C., 2 h
T1 construct: inserting a stop codon after CES1A1 gene to yield the constructs expressing CES1 without V5-His tag; expressed in transfected cells
T1 sequence (P23141 18-567 G143E/Y526T): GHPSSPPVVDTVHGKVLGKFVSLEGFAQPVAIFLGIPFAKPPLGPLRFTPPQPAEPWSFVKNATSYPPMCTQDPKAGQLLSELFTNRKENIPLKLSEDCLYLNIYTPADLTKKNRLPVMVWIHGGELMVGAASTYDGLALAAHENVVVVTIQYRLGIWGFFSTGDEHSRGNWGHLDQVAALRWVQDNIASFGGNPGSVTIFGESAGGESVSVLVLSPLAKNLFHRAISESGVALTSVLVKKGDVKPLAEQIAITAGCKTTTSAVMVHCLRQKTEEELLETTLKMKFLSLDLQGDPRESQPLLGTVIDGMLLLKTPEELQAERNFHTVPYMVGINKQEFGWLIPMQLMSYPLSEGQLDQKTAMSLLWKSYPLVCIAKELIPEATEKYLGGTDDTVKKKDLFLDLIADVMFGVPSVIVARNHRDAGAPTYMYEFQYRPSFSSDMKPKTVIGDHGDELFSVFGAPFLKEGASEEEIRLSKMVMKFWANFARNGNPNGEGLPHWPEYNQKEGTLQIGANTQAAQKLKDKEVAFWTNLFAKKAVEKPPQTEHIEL
Text: (§1) The desired plasmid was designed such that the recombinant CES1 would be expressed in mammalian cells with a V5-His tag to facilitate detection and purification. Additionally, another plasmid was generated by inserting a stop codon after CES1A1 gene to yield the constructs expressing CES1 without V5-His tag. […] Thus, only untagged CES1 and its associated mutants were used in the enzymatic hydrolysis study. Two constructs of CES1 mutations, p.Gly143Glu and p.Asp260fs, were generated using a site-directed mutagenesis assay. All constructs were subjected to DNA sequencing analysis to confirm that the desired plasmids were obtained. The identified CES1A1 plasmids (WT, p.Gly143Glu, and p.Asp260fs) were co-transfected with pOG44 plasmid at a ratio of 1:10 into Flp-In™-293 cells using […] (Invitrogen, Carlsbad, Calif.). Additionally, the self-ligated pcDNA5/FRT/V5-His-TOPO® vector was included as a vector control. Twenty-four hours after transfection, cells were washed with PBS and fresh complete medium (Dulbecco's modified Eagle's medium containing 10% fetal bovine serum) was added. […]
(§2) After attaining approximately 95% confluence, cells were rinsed and harvested in PBS containing 10 mM HEPES (pH 7.4). […] The protein concentration was determined using a Pierce BCA assay kit (Rockford, Ill.).
(§3) For the study of MPH hydrolysis, the reaction was conducted in 1.5 mL eppendorf tubes with a final S9 concentration of 0.5 mg/mL at a total volume of 100 μL. […] Concentrations of the primary phase I MPH metabolite produced via hydrolysis, ritalinic acid (RA), was determined utilizing an established HPLC method described below.
(§4) Thus, following the enzymatic assay, the values determined for spontaneous PNP and RA hydrolysis were subtracted from the total PNP and RA production. […] All collected data were fit to the Michaelis-Menten equation, and kinetic parameters were calculated using nonlinear regression analysis with Graphpad Prism software (Graphpad Software Inc., San Diego, Calif.) […]

[3] = molecular target: T2, p.Asp260fs CES1 (Homo sapiens, UniProt P23141); assay: MPH hydrolysis to ritalinic acid by S9 of cells expressing p.Asp260fs CES1 (HPLC); type: biochemical; conditions: S9 500 μg/ml, even at very high S9 concentration (2 mg/ml); 37° C., 2 h
T2 construct: a frameshift mutation that alters residues 260-299 and causes early truncation at a premature stop codon; expressed in transfected cells
T2 sequence (P23141 with tags, fused parts or gaps): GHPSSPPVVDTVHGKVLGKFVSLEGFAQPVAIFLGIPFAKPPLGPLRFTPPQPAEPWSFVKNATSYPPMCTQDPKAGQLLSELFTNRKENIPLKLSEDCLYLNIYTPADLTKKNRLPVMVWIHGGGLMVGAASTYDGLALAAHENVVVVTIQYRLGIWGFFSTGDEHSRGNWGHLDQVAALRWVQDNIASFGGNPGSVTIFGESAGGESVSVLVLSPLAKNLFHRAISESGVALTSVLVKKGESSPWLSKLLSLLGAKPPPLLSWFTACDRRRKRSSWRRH
Text: as §1, §2, §3, §4

[4] = mean ±SD of all other subjects, single oral 0.3 mg/kg racemic MPH

## COC(=O)[C@H](c1ccccc1)[C@H]1CCCCN1 [d-MPH, methylphenidate]
[1]; oral, 0.3 mg/kg, Table 1, 19 study peers, read-out: AUC, Mean (±SD)
  AUC: 0.0786 µg·h/mL
[1]; oral, 0.3 mg/kg, Table 1, 19 study peers, read-out: Cmax, Mean (±SD)
  Cmax: 0.0138 µg/mL
[1]; oral, 0.3 mg/kg, Table 1, 19 study peers, read-out: t1/2, Mean (±SD) (converted)
  half-life: 3 h
[1]; [4]
  Tmax: 2.3 ± 0.8 h
  AUC(0-inf): 0.083 ± 0.022 µg·h/mL
[1]; mean ±SD of all other subjects, single oral 0.3 mg/kg racemic MPH, read-out: t1/2 (converted)
  half-life: 2.8 ± 0.4 h
[1]; mean ±SD of all other subjects, single oral 0.3 mg/kg racemic MPH, read-out: Cmax
  Cmax: 0.015 ± 0.003 µg/mL
[1]; male, oral, 0.3 mg/kg, Table 1, aberrant metabolizer, read-out: AUC, Outlier
  AUC: 0.209 µg·h/mL
[1]; male, oral, 0.3 mg/kg, Table 1, aberrant metabolizer, read-out: Cmax, Outlier
  Cmax: 0.0367 µg/mL
[1]; male, oral, 0.3 mg/kg, Table 1, aberrant metabolizer, read-out: t1/2, Outlier (converted)
  half-life: 5.4 h
[1]; male, slow metabolizer, single oral 0.3 mg/kg racemic MPH
  Tmax: 3 h
[1]; male, slow metabolizer, single oral 0.3 mg/kg racemic MPH, read-out: t1/2 (converted)
  half-life: 5.4 h
[1]; male, slow metabolizer (heterozygous for p.Gly143Glu and p.Asp260fs), single oral 0.3 mg/kg racemic MPH
  AUC(0-inf): 0.209 µg·h/mL
[1]; male, slow metabolizer, single oral 0.3 mg/kg racemic MPH, read-out: Cmax
  Cmax: 0.037 µg/mL
[2]
  catalytic activity towards MPH hydrolysis: failed to show any hydrolytic activity
[3]
  catalytic activity towards MPH hydrolysis: failed to show any hydrolytic activity
